Results taken from patent publication US20060063803A1, “4-Amino substituted-2-substituted-1,2,3,4-tetrahydroquinoline compounds” (Pfizer Inc, priority 2004, published 2006).

Columns and labels:
[1] = In vitro microcentrifuge dissolution test; type: physicochemical; conditions: PBS pH 6.5, 290 mOsm/kg, 7.3 mM sodium taurocholic acid, 1.4 mM 1-palmitoyl-2-oleyl-sn-glycero-3-phosphocholine, 37° C.; 200 μgA/mL if all dissolved
Protocol: An in vitro dissolution test was used to determine the dissolution performance of the solid amorphous dispersion of Example 89. For this test, a sufficient amount of material was added to a microcentrifuge test tube so that the concentration of Compound A would have been 200 μgA/mL, if all of the compound had dissolved. The test was run in duplicate. The tubes were placed in a 37° C. temperature-controlled chamber, and 1.8 mL PBS at pH 6.5 and 290 mOsm/kg, containing 7.3 mM sodium taurocholic acid and 1.4 mM of 1-palmitoyl-2-oleyl-sn-glycero-3-phosphocholine, was added to each respective tube. The samples were quickly mixed using a vortex mixer for about 60 seconds. The samples were centrifuged at 13,000 G at 37° C. for 1 minute. The resulting supernatant solution was then sampled and diluted 1:5 (by volume) with methanol and analyzed by high-performance liquid chromatography (HPLC). HPLC analysis was performed using a Zorbax RX-C18 column. The mobile phase consisted of 30/70 0.15% trifluoroacetic acid/acetonitrile, with a flow rate of 1.0 mL/min. UV absorbance was measured at 254 nm. The contents of each tube were mixed on the vortex mixer and allowed to stand undisturbed at 37° C. until the next sample was taken. Samples were collected at 4, 10, 20, 40, 90, and 1200 minutes. […]

[2] = In vivo tests - dogs, oral suspension, serum levels by LC/MS/MS; conditions: dog, 3 male beagle dogs, fasted, oral gavage of OPC suspension, 3 mgA/kg
Protocol: Samples were dosed orally as suspensions to 3 male beagle dogs in the fasted state. Oral powders for constitution (OPC) were prepared by adding 150 mg of crystalline Compound A to 50 mL water containing 0.5 wt % Methylcellulose A, or 600 mg of the dispersion of Example 1 to 50 mL water containing 0.5 wt % Methylcellulose A and 0.1 wt % Tween 80. Dogs were fasted overnight, and allowed ad libidum access to water. On the morning of the study, approximately 10 mL of OPC solution (3 mgA/kg) was administered via oral gavage with 10 mL normal saline flush.
Whole-blood samples (3-mL red-top Vacutainer tubes without serum separators) were taken from the jugular vein before dosing and at 0.25, 0.5, 1, 2, 4, 6, 8, and 24 hours after dosing. Serum was harvested into cryovials after centrifugation at 3000 rpm for 10 minutes. The samples were frozen and then kept at −20° C. until they were analyzed by liquid chromatography with tandem mass spectrometry (LC/MS/MS).

With `CC[C@@H]1C[C@H](N(Cc2cc(C(F)(F)F)cc(C(F)(F)F)c2)c2nnn(C)n2)c2cc(C(F)(F)F)ccc2N1C(=O)[C@H]1CC[C@H](CC(N)=O)CC1` [Crystalline Compound A, Trans-(2R,4S)-2-(4-{4-[(3,5-Bis-trifluoromethyl-benzyl)-(2-methyl-2H-tetrazol-5-yl)-amino]-2-ethyl-6-trifluoromethyl-3,4-dihydro-2H-quinoline-1-carbonyl}-cyclohexyl)-acetamide] the “AUC90 (area under the concentration-versus-time curve during the initial ninety minutes)” value [1] was 800 min * μgA/mL, the “MDC90 (maximum dissolved concentration of Compound A during the initial ninety minutes)” value [1] was 13 μgA/mL and the AUC(0-inf) [2] was 2690 ng·h/mL. It also gave a Cmax [2] of 186 ng/mL.
